{
  "source": "patent US20090104214A1",
  "about": "(priority 2004, published 2009)",
  "key": {"PA63-LF binding": {"target": "PA63-LF binding (Bacillus anthracis, UniProt P13423)", "sequence (P13423 197-764 limits assumed)": "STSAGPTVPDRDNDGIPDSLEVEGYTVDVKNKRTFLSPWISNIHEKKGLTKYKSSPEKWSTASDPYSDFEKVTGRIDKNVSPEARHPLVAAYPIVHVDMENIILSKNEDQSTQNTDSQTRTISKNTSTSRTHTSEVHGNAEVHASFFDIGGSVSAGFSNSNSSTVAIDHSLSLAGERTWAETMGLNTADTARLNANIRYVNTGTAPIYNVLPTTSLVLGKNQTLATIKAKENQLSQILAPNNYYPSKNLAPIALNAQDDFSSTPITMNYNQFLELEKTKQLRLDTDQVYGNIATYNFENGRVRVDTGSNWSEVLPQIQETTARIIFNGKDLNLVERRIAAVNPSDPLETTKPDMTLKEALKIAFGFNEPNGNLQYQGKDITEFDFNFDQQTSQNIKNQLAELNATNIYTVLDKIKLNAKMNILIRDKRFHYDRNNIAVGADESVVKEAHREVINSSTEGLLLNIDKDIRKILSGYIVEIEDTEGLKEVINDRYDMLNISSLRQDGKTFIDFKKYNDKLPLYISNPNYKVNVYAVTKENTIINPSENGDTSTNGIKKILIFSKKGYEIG"}, "[1]": {"target": "anthrax lethal toxin (PA83 and LF) (Bacillus anthracis, UniProt P13423)", "sequence (P13423 197-764 limits assumed)": "as above", "conditions": "rat, in vivo, iv"}, "[2]": {"tested_on": "J774A.1 cells incubated with PA83 and LF", "assay_type": "cell-based, mouse"}, "LF": {"target": "LF (Bacillus anthracis, UniProt P15917)", "sequence (P15917 34-809 limits assumed)": "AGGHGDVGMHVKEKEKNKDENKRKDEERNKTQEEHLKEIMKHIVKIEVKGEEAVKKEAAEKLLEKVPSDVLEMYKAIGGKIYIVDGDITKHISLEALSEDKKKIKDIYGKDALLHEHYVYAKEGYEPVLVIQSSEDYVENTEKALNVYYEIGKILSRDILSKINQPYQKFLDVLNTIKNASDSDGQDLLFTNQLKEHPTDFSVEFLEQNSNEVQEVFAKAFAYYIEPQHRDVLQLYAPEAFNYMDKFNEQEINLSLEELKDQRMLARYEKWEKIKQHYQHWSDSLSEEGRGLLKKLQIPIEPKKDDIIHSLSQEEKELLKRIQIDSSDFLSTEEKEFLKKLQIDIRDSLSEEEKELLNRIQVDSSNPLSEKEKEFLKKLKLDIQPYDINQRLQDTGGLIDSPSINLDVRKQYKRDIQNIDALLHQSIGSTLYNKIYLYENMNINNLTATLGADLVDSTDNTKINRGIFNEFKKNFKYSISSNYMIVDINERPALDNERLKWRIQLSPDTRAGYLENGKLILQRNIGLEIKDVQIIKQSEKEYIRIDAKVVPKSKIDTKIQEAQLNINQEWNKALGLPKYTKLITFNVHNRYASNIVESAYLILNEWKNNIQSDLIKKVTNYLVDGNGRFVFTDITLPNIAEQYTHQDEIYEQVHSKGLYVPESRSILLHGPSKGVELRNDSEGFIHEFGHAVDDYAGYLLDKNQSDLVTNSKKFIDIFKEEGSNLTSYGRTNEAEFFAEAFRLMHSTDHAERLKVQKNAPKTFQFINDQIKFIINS"}, "PA63 [3]": {"target": "T1, PA63 (Bacillus anthracis, UniProt P13423)", "T1 sequence (P13423 197-764 limits assumed)": "as the sequence (P13423 197-764 limits assumed) above"}, "[4]": {"target": "purified recombinant PA83 (Bacillus anthracis, UniProt P13423)", "sequence (P13423 30-764 limits assumed)": "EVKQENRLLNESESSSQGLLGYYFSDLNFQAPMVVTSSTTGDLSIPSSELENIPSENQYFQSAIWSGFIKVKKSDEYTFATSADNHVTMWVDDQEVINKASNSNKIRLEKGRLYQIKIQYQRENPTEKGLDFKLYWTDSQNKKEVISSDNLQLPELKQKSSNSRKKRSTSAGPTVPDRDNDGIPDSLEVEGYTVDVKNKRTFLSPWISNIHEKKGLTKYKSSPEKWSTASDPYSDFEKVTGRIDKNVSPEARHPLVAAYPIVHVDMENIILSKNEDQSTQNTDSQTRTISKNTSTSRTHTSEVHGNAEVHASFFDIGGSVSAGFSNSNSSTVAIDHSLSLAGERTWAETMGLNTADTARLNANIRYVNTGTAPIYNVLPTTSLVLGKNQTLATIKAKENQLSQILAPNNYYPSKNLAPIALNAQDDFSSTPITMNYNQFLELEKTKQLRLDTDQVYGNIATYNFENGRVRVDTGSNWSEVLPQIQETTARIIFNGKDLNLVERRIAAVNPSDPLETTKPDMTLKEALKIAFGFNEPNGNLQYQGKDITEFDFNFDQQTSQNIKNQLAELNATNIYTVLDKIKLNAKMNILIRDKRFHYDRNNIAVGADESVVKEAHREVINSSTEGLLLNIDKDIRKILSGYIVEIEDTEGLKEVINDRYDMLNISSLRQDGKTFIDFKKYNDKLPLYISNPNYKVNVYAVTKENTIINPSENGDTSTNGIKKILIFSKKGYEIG"}, "PA63 [5]": {"target": "T1, PA63", "remark": "listed apart in the source"}},
  "data": [
    {"substance": "AVMTYWWLDPPL", "values": [
      {"measurement": "effective in blocking the interaction of PA with LF (summary statement)", "setting": "PA63-LF binding", "value": "Particularly effective"},
      {"measurement": "inhibition of PA63-LF binding in ELISA, alanine scanning of MAP3", "setting": "PA63-LF binding", "value": "better efficiency"}
    ]},
    {"substance": "NAMTYWWLDPPL [MAP3V/A]", "values": [
      {"measurement": "neutralization of lethal toxin toxicity in rats", "setting": "[1]", "value": "completely neutralized toxicity"},
      {"measurement": "effective in blocking the interaction of PA with LF (summary statement)", "setting": "PA63-LF binding", "value": "Particularly effective"},
      {"measurement": "inhibition of PA63-LF binding in ELISA, alanine scanning of MAP3", "setting": "PA63-LF binding", "value": "better efficiency"},
      {"measurement": "IC50 for inhibition of PA83/LF-induced cell mortality, compared with MAP3", "setting": "[2]", "value": "one log lower than that of MAP3"}
    ]},
    {"substance": "NDMTYWWLDPPL", "values": [
      {"measurement": "effective in blocking the interaction of PA with LF (summary statement)", "setting": "PA63-LF binding", "value": "Particularly effective"},
      {"measurement": "inhibition of PA63-LF binding in ELISA, substitution of position 2 of MAP 3", "setting": "PA63-LF binding", "value": "good efficiency"}
    ]},
    {"substance": "NEMTYWWLDPPL", "values": [
      {"measurement": "effective in blocking the interaction of PA with LF (summary statement)", "setting": "PA63-LF binding", "value": "Particularly effective"},
      {"measurement": "inhibition of PA63-LF binding in ELISA, substitution of position 2 of MAP 3", "setting": "PA63-LF binding", "value": "good efficiency"}
    ]},
    {"substance": "NGMTYWWLDPPL", "values": [
      {"measurement": "effective in blocking the interaction of PA with LF (summary statement)", "setting": "PA63-LF binding", "value": "Particularly effective"},
      {"measurement": "inhibition of PA63-LF binding in ELISA, substitution of position 2 of MAP 3", "setting": "PA63-LF binding", "value": "good efficiency"}
    ]},
    {"substance": "NNMTYWWLDPPL", "values": [
      {"measurement": "effective in blocking the interaction of PA with LF (summary statement)", "setting": "PA63-LF binding", "value": "Particularly effective"},
      {"measurement": "inhibition of PA63-LF binding in ELISA, substitution of position 2 of MAP 3", "setting": "PA63-LF binding", "value": "good efficiency"}
    ]},
    {"substance": "NPMTYWWLDPPL", "values": [
      {"measurement": "effective in blocking the interaction of PA with LF (summary statement)", "setting": "PA63-LF binding", "value": "Particularly effective"},
      {"measurement": "inhibition of PA63-LF binding in ELISA, substitution of position 2 of MAP 3", "setting": "PA63-LF binding", "value": "good efficiency"}
    ]},
    {"substance": "NQMTYWWLDPPL", "values": [
      {"measurement": "effective in blocking the interaction of PA with LF (summary statement)", "setting": "PA63-LF binding", "value": "Particularly effective"},
      {"measurement": "inhibition of PA63-LF binding in ELISA, substitution of position 2 of MAP 3", "setting": "PA63-LF binding", "value": "good efficiency"}
    ]},
    {"substance": "NSMTYWWLDPPL", "values": [
      {"measurement": "effective in blocking the interaction of PA with LF (summary statement)", "setting": "PA63-LF binding", "value": "Particularly effective"},
      {"measurement": "inhibition of PA63-LF binding in ELISA, substitution of position 2 of MAP 3", "setting": "PA63-LF binding", "value": "good efficiency"}
    ]},
    {"substance": "NTMTYWWLDPPL", "values": [
      {"measurement": "effective in blocking the interaction of PA with LF (summary statement)", "setting": "PA63-LF binding", "value": "Particularly effective"},
      {"measurement": "inhibition of PA63-LF binding in ELISA, substitution of position 2 of MAP 3", "setting": "PA63-LF binding", "value": "good efficiency"}
    ]},
    {"substance": "NVMTYWWLAPPL", "values": [
      {"measurement": "effective in blocking the interaction of PA with LF (summary statement)", "setting": "PA63-LF binding", "value": "Particularly effective"},
      {"measurement": "inhibition of PA63-LF binding in ELISA, alanine scanning of MAP3", "setting": "PA63-LF binding", "value": "better efficiency"}
    ]},
    {"substance": "NVMTYWWLDPPA", "values": [
      {"measurement": "effective in blocking the interaction of PA with LF (summary statement)", "setting": "PA63-LF binding", "value": "Particularly effective"},
      {"measurement": "inhibition of PA63-LF binding in ELISA, alanine scanning of MAP3", "setting": "PA63-LF binding", "value": "better efficiency"}
    ]},
    {"substance": "NVMTYWWLDPPL [MAP3]", "values": [
      {"measurement": "binding to LF in ELISA", "setting": "LF", "value": "did not bind"},
      {"measurement": "neutralization of lethal toxin toxicity in rats", "setting": "[1]", "value": "completely neutralized toxicity"},
      {"measurement": "binding to PA63 in ELISA", "setting": "PA63 [3]", "value": "specifically bound"},
      {"measurement": "IC50 of inhibition of PA63-LF binding in ELISA, compared with MAP2", "setting": "PA63-LF binding", "value": "about one log lower than that of MAP2"},
      {"measurement": "effective in blocking the interaction of PA with LF (summary statement)", "setting": "PA63-LF binding", "value": "Particularly effective"},
      {"measurement": "binding to purified recombinant PA83 in ELISA", "setting": "[4]", "value": "did not bind"}
    ]},
    {"substance": "NVMTYWWLDPPL [p3]", "values": [
      {"measurement": "equilibrium association constant KA of peptide-PA63 binding", "setting": "PA63 [5]", "value": "3.4e+07", "unit": "M⁻¹"},
      {"measurement": "koff", "setting": "PA63 [5]", "value": 0.0004, "unit": "s⁻¹"},
      {"measurement": "kon", "setting": "PA63 [5]", "value": 14000, "unit": "M⁻¹ s⁻¹"}
    ]},
    {"substance": "NYMTYWWLDPPL", "values": [
      {"measurement": "effective in blocking the interaction of PA with LF (summary statement)", "setting": "PA63-LF binding", "value": "Particularly effective"},
      {"measurement": "inhibition of PA63-LF binding in ELISA, substitution of position 2 of MAP 3", "setting": "PA63-LF binding", "value": "good efficiency"}
    ]},
    {"substance": "TLAYWWLTPSNP", "values": [
      {"measurement": "effective in blocking the interaction of PA with LF (summary statement)", "setting": "PA63-LF binding", "value": "Particularly effective"}
    ]},
    {"substance": "TLPYWWLTPSNP [MAP2]", "values": [
      {"measurement": "binding to LF in ELISA", "setting": "LF", "value": "did not bind"},
      {"measurement": "binding to PA63 in ELISA", "setting": "PA63 [3]", "value": "specifically bound"},
      {"measurement": "effective in blocking the interaction of PA with LF (summary statement)", "setting": "PA63-LF binding", "value": "Particularly effective"},
      {"measurement": "binding to purified recombinant PA83 in ELISA", "setting": "[4]", "value": "did not bind"}
    ]},
    {"substance": "TLPYWWLTPSNP [p2]", "values": [
      {"measurement": "equilibrium association constant KA of peptide-PA63 binding", "setting": "PA63 [5]", "value": "7.2e+06", "unit": "M⁻¹"},
      {"measurement": "koff", "setting": "PA63 [5]", "value": 0.0007, "unit": "s⁻¹"},
      {"measurement": "kon", "setting": "PA63 [5]", "value": 5000, "unit": "M⁻¹ s⁻¹"}
    ]},
    {"substance": "YWWLDPP", "values": [
      {"measurement": "effective in blocking the interaction of PA with LF (summary statement)", "setting": "PA63-LF binding", "value": "Particularly effective"}
    ]},
    {"substance": "YWWLEPP", "values": [
      {"measurement": "effective in blocking the interaction of PA with LF (summary statement)", "setting": "PA63-LF binding", "value": "Particularly effective"}
    ]},
    {"substance": "YWWLHPP", "values": [
      {"measurement": "effective in blocking the interaction of PA with LF (summary statement)", "setting": "PA63-LF binding", "value": "Particularly effective"}
    ]},
    {"substance": "YWWLKPP", "values": [
      {"measurement": "effective in blocking the interaction of PA with LF (summary statement)", "setting": "PA63-LF binding", "value": "Particularly effective"}
    ]},
    {"substance": "YWWLQPP", "values": [
      {"measurement": "effective in blocking the interaction of PA with LF (summary statement)", "setting": "PA63-LF binding", "value": "Particularly effective"}
    ]},
    {"substance": "YWWLTP", "values": [
      {"measurement": "inhibition of PA63-LF binding in ELISA, shortening of MAP2 and re-elongation of YWWLTP", "setting": "PA63-LF binding", "value": "minimal sequence able to inhibit PA-LF binding"}
    ]},
    {"substance": "YWWLTPP", "values": [
      {"measurement": "effective in blocking the interaction of PA with LF (summary statement)", "setting": "PA63-LF binding", "value": "Particularly effective"},
      {"measurement": "inhibition of PA63-LF binding in ELISA, shortening of MAP2 and re-elongation of YWWLTP", "setting": "PA63-LF binding", "value": "superior inhibitory efficiency"}
    ]},
    {"substance": "YWWLTPPA", "values": [
      {"measurement": "effective in blocking the interaction of PA with LF (summary statement)", "setting": "PA63-LF binding", "value": "Particularly effective"},
      {"measurement": "inhibition of PA63-LF binding in ELISA, shortening of MAP2 and re-elongation of YWWLTP", "setting": "PA63-LF binding", "value": "even better efficiency"}
    ]},
    {"substance": "YWWLTPPP [8mer peptide YWWLTPPP]", "values": [
      {"measurement": "KA fold higher than that of lead 12mer p2", "setting": "PA63 [5]", "value": "about 10 fold"},
      {"measurement": "equilibrium association constant KA of peptide-PA63 binding", "setting": "PA63 [5]", "value": "6.8e+07", "unit": "M⁻¹"},
      {"measurement": "koff", "setting": "PA63 [5]", "value": 0.0013, "unit": "s⁻¹"},
      {"measurement": "kon", "setting": "PA63 [5]", "value": 88000, "unit": "M⁻¹ s⁻¹"}
    ]},
    {"substance": "YWWLTPPP [MAP YWWLTPPP]", "values": [
      {"measurement": "neutralization of lethal toxin toxicity in rats", "setting": "[1]", "value": "completely neutralized toxicity"},
      {"measurement": "effective in blocking the interaction of PA with LF (summary statement)", "setting": "PA63-LF binding", "value": "Particularly effective"},
      {"measurement": "inhibition of PA63-LF binding in ELISA, shortening of MAP2 and re-elongation of YWWLTP", "setting": "PA63-LF binding", "value": "even better efficiency"}
    ]},
    {"substance": "YWWLTPPQ", "values": [
      {"measurement": "effective in blocking the interaction of PA with LF (summary statement)", "setting": "PA63-LF binding", "value": "Particularly effective"},
      {"measurement": "inhibition of PA63-LF binding in ELISA, shortening of MAP2 and re-elongation of YWWLTP", "setting": "PA63-LF binding", "value": "even better efficiency"}
    ]}
  ]
}
